Results published in article PMC8303187, “Anti-Inflammatory Effects of Compounds from Cudrania tricuspidata in HaCaT Human Keratinocytes” (International Journal of Molecular Sciences, 2021).
Where two headings read alike, the source gives them in different places.

Key:
[1] = tested on: IL-8 production in TNF-α + IFN-γ-treated HaCaT cells; assay: IL-8 production in TNF-α + IFN-γ-treated HaCaT cells (ELISA); assay type: cell-based, human; details: for IC50: HaCaT cells pre-incubated with compound 3 h, then TNF-α + IFN-γ (20 ng/mL) 24 h, ELISA; for IL-8 production: HaCaT cells pre-treated 3 h, then TNF-α + IFN-γ 24 h, result in words
Description: Next, the effect of the 16 compounds from C. tricuspidata on IL-8 production in HaCaT cells were determined. Briefly, HaCaT cells were pre-incubated with different concentrations of the 16 compounds for 3 h. Thereafter, the cells were subjected to TNF-α + IFN-γ stimulation for 24 h. […] Compound 2, with its flavanone skeletons, has been studied for its cyclooxygenase and tyrosinase inhibitory effects. In a previous study, compound 2 altered the anti-neuroinflammatory response in microglia. Compound 6, a prenylated flavanone, has been reported to have apoptotic effects on A375.S2 melanoma cells and to lead to the induction of apoptotic cell death in KM12, Caco-2, HT29, HCC2998, HCT116, and SW48 cell lines. […] This is the first report on the biological action of compounds 2, 6, 12, 13, 4, and 14 on the inhibitory effects of skin inflammatory factors in skin HaCaT cells. Therefore, further mechanism studies of these six compounds in HaCaT cells were conducted.
(§1) The cytokines and chemokines in IL-6, IL-8, CCL17 (TARC), and CCL5 (RANTES) HaCaT cells were detected using an enzyme-linked immunosorbent assay. The levels of these cytokines and chemokines were measured using commercial ELISA kits (BioLegend, San Diego, CA, USA), according to the manufacturer’s instructions.
Figure S3. Effects of the 16 compounds from C. tricuspidata on IL-8 (A, B, and C) production in TNF-α+IFN-γ-treated HaCaT cells. The cells were pre-treated with the indicated concentrations of the C. tricuspidata compounds for 3 h, and then stimulated with TNF-α+IFN-γ (20 ng/mL) for 24 h. […] levels were determined as described in the Materials and Methods section. Data are expressed as the mean ± standard deviation of three experiments. *p < 0.05, **p < 0.01, and ***p < 0.001 compared with TNF- […]
(1 picture or pasted object on this page, not shown here)

[2] = tested on: IL-6 production in TNF-α + IFN-γ-treated HaCaT cells; assay: IL-6 production in TNF-α + IFN-γ-treated HaCaT cells (ELISA); assay type: cell-based, human; details: for IC50: HaCaT cells pre-incubated with compound 3 h, then TNF-α + IFN-γ (20 ng/mL) 24 h, ELISA; for IL-6 production: HaCaT cells pre-treated 3 h, then TNF-α + IFN-γ 24 h, result in words
Description: The skin consists of two basic layers: the epidermis and dermis. The epidermis is mainly composed of keratinocytes. Pro-inflammatory cytokines are known to play an important role in the immune response in keratinocytes. Previous studies have reported the roles of TNF-α and IFN-γ in inducing NF-κB activation, which upregulates the production of IL-6 and IL-8 [25]. […] Accordingly, the effect of the 16 compounds from C. tricuspidata on IL-6 production in TNF-α + IFN-γ-treated HaCaT cells were determined. Briefly, HaCaT cells were pre-incubated with different concentrations of the 16 compounds for 3 h, and then stimulated with TNF-α + IFN-γ for 24 h.
as §1
Figure S2. Effects of the 16 compounds from C. tricuspidata on IL-6 production in TNF-α+IFN-γ-treated HaCaT cells (A, B, and C). Cells were pre-treated with the indicated concentrations of the 16 compounds from C. tricuspidata for 3 h and then stimulated with TNF-α+IFN-γ (20 ng/mL) for 24 h. IL-6 levels were determined as described in the Materials and Methods section. The results are presented as the mean ± standard deviation of three experiments. *p < 0.05, **p < 0.01, and ***p < 0.001 compared with TNF-

[3] = tested on: HaCaT cells; assay: Cell Counting Kit (CCK)-8 cell viability / cytotoxicity assay; details: CCK-8 assay, 24 h, concentration values that did not result in cytotoxicity
Description: (§6) The cytotoxicity of the 16 compounds was evaluated using a Cell Counting Kit (CCK)-8 assay on HaCaT cells.
(§7) To determine the viability of HaCaT cells, these were maintained at 2 × 10^4 cells/well, treated with the test compounds in the presence or absence of glutamate (5 mM), and cultured for 24 h. Subsequently, a CCK8 assay (Dojindo Laboratories, Kumamoto, Japan) was performed and the cells were incubated for 1 h. The absorbance was then measured at 450 nm.

[4] = tested on: HaCaT cells
Description: as §6, §7

[5] = tested on: IκBα degradation in HaCaT cells; assay: Degradation of cytoplasmic IκBα in TNF-α + IFN-γ-treated HaCaT cells (Western blotting); assay type: cell-based, human; details: HaCaT cells pretreated 3 h, then TNF-α + IFN-γ (20 ng/mL) 10 min; Western blot
Description: (§2) The activation of NF-κB by TNF-α and/or IFN-γ results from high levels of IκB phosphorylation and the degradation of IκB in keratinocytes. NF-κB–mediated inflammation is a significant component of innate immunity and seems to be a final common pathway for the aggravation of the inflammatory response to stimuli in immune diseases of the skin [56]. To determine the potential mechanisms of the inhibition of TNF-α + IFN-γ-induced pro-inflammatory enzyme and the mediator levels by the six compounds from C. tricuspidata, their effects on the phosphorylation and degradation of cytoplasmic IκBα and on p65 translocation to the nucleus were investigated. […] In addition, compounds 13, 4, and 14 inhibited the phosphorylation of IκBα (Figure 5C,D). When HaCaT cells were exposed to TNF-α + IFN-γ, NF-κB p65 translocated from the cytoplasm to the nucleus.
(§3) Figure 5 Effects of the six compounds from C. tricuspidata on the degradation of IκB-α (A,B), the phosphorylation of IκBα (C,D), and the translocation of NF-κB p65 to the nucleus (E,F) in HaCaT cells. Cells were pretreated with the six compounds from C. tricuspidata at the indicated concentrations for 3 h and stimulated with TNF-α + IFN-γ (20 ng/mL) for 10 min. IκBα, p-IκBα, and NF-κB p65 were analyzed using Western blotting, as described in the Materials and Methods section. Representative blots from four independent experiments are presented. The immunoblots were quantified using ImageJ software. The band intensity was normalized to that of actin or anti-proliferating cell nuclear antigen (PCNA). * p < 0.05, ** p < 0.01, *** p < 0.001 compared with TNF-α + IFN-γ only.
(§4) Cells were harvested and pelleted via centrifugation at 200× g for 3 min, washed with PBS, and lysed in 20 mM Tris-HCl buffer (pH 7.4) containing a protease inhibitor mixture (0.1 mM phenylmethanesulfonyl fluoride, 5 mg/mL aprotinin, 5 mg/mL pepstatin A, and 1 mg/mL chymostatin). The protein concentration was determined using a protein assay dye reagent concentrate (#5000006; Bio-Rad Laboratories, Hercules, CA, USA). A total of 30 micrograms of protein from each sample was resolved using 7.5% and 12% sodium dodecyl sulfate-polyacrylamide gel electrophoresis. Thereafter, the proteins were electrophoretically transferred onto Hybond enhanced chemiluminescence (ECL) nitrocellulose membranes (Bio-Rad Laboratories). The membranes were blocked with 5% skimmed milk, and sequentially incubated with the relevant primary antibody and horseradish peroxidase-conjugated secondary antibody, prior to ECL detection (Pierce Biotechnology, Rockford, IL, USA).
(§5) HaCaT cells were homogenized in PER-Mammalian Protein Extraction Buffer (1:20, w:v) (Pierce Biotechnology, Rockford, IL, USA) containing freshly added protease inhibitor cocktail I (EMD Biosciences, San Diego, CA, USA) and 1 mM phenylmethanesulfonyl fluoride. The cytosolic fractions were prepared using centrifugation at 16,000× g for 5 min at 4 °C, while the nuclear and cytoplasmic cell extracts were prepared using NE-PER nuclear and cytoplasmic extraction reagents, respectively (Pierce Biotechnology, Rockford, IL, USA).

[6] = tested on: NF-κB p65 translocation to the nucleus in HaCaT cells; assay: NF-κB p65 translocation to the nucleus in TNF-α + IFN-γ-treated HaCaT cells (Western blotting); assay type: cell-based, human; details: HaCaT cells pretreated 3 h, then TNF-α + IFN-γ (20 ng/mL) 10 min; Western blot
Description: as §2, §3, §4, §5

Compound | IC50 [1] [µM] | IL-8 production [1] | IC50 [2] [µM] | Cytotoxicity [3] [µM] | IC50 ([1]; Homo sapiens) [µM] | IC50 ([2]; Homo sapiens) [µM] | IL-6 production [2] | Cytotoxicity [4] [µM] | degradation of IκBα in the cytoplasm [5] | NF-κB p65 translocation to the nucleus [6]
cudraxanthone M [Compound 8] | > 10 | decreased | > 10 | >10 |  |  |  |  |  | 
CC(C)=CCc1c(O)cc2c(c1O)C(=O)C[C@@H](c1cc3c(cc1O)OC(C)(C)C=C3)O2 [Compound 5, cudraflavanone A] |  | decreased |  | >40 | > 40 | > 40 |  |  |  | 
CC(C)=CCc1cc([C@H]2Oc3cc(O)c(CC=C(C)C)c(O)c3C(=O)C2O)c(O)cc1O (stereo partly drawn) [Compound 3, cudraflavanone D] |  | decreased |  | >10 | 4.2 ± 1.03 | > 10 | significantly decreased |  |  | 
C=CC(C)(C)c1c(O)cc2oc3c(CC=C(C)C)c(O)c(O)cc3c(=O)c2c1O [Compound 10, cudraxanthone L] |  | decreased |  | >2 | > 2 | > 2 | significantly decreased |  |  | 
CC(C)=CCc1c(-c2ccc(O)cc2O)oc2c(CC=C(C)C)c(O)cc(O)c2c1=O [Compound 7, kuwanon C] |  | decreased |  | >40 | > 40 | 25.8 ± 5.16 | significantly decreased |  |  | 
C=CC(C)(C)c1c(OC)c(CC=C(C)C)c2oc3cc(O)c(O)cc3c(=O)c2c1O [Compound 15, cudracuspixanthone A] |  | decreased |  | >2 | 1.54 ± 0.53 | > 2 | significantly decreased |  |  | 
COc1cc(/C=C/C(=O)CC(=O)/C=C/c2ccc(O)c(OC)c2)ccc1O [curcumin, reference compound] |  |  |  |  | 10.3 ± 2.2 | 12 ± 3.13 |  |  |  | 
cudraxanthone D [Compound 9] |  | decreased |  |  |  |  |  | >5 |  | 
C=CC(C)(C)c1c(O)cc(O)c2c(=O)c3c(CC=C(C)C)c(O)c(O)cc3oc12 [Compound 11, cudratricusxanthone A] |  |  |  | >5 | > 5 | > 5 |  |  |  | 
C=CC(C)(C)c1c(O)c(CC=C(C)C)c2oc3cc(O)c(O)cc3c(=O)c2c1O [Compound 12, macluraxanthone B] |  | decreased |  | >5 | 7.88 ± 3.09 | > 5 | significantly decreased |  | inhibit | significantly inhibited
O=C1CC(c2ccc(O)cc2O)Oc2cc(O)cc(O)c21 (stereo not drawn) [Compound 2, steppogenin] |  | decreased |  | >80 | 62.2 ± 16.5 | > 80 | significantly decreased |  |  | significantly inhibited
C=CC(C)(C)c1c2c(c3oc4cc(O)c(O)cc4c(=O)c3c1O)C=CC(C)(C)O2 [Compound 16, cudratricusxanthone N] |  | decreased |  | >2 | > 2 | > 2 |  |  |  | 
O=C1c2c(O)cc(O)cc2O[C@H](c2ccc(O)cc2)[C@H]1O [Compound 1, dihydrokaempferol] |  | decreased |  | >80 | > 80 | > 80 | significantly decreased |  |  | 
